# Test results from article PMC7835950 (Frontiers in Chemistry, 2021).
# Read-outs that look alike come from different tables or passages of the source.
# Molecular target: T1, OGDH (Rattus norvegicus, UniProt Q5XI78)
# T1 sequence (Q5XI78 41-1023): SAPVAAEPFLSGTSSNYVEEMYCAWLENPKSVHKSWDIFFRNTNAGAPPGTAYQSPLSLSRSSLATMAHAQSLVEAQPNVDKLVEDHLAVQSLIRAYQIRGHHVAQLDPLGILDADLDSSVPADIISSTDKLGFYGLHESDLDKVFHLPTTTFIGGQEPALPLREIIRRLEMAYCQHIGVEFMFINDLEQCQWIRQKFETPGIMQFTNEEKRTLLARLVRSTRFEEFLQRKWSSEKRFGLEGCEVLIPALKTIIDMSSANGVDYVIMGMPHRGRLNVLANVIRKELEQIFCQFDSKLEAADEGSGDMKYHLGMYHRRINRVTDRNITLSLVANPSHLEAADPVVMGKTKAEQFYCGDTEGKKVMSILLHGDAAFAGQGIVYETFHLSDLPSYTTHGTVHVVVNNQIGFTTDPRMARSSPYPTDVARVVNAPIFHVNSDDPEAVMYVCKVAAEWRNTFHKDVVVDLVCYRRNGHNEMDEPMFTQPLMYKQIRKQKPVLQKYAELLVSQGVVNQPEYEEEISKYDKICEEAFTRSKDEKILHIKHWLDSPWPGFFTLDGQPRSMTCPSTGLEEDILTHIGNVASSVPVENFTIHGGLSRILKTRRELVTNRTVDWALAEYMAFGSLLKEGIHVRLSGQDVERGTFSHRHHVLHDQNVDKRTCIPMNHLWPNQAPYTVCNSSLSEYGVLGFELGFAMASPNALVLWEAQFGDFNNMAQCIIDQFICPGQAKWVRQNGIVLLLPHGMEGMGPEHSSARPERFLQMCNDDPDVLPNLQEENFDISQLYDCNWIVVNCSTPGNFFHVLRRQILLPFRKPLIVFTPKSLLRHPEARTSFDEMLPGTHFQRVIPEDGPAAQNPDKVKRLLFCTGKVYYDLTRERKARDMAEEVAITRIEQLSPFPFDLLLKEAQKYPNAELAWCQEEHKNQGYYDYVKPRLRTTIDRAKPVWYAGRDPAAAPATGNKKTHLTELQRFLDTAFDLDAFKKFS
# T1 sequence (Q01205 69-454 partner): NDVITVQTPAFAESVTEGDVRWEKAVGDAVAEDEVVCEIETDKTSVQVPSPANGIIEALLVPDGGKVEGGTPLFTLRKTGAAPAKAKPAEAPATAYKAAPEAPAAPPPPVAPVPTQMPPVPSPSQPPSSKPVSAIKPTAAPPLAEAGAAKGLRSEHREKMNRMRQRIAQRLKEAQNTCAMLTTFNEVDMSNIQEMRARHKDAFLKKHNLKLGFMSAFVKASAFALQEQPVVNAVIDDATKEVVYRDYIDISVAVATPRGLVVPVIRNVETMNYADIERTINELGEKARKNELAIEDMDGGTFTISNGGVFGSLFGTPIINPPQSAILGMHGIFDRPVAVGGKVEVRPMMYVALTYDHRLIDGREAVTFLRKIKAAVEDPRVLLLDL
# T1 sequence (Q6P6R2 36-509 partner): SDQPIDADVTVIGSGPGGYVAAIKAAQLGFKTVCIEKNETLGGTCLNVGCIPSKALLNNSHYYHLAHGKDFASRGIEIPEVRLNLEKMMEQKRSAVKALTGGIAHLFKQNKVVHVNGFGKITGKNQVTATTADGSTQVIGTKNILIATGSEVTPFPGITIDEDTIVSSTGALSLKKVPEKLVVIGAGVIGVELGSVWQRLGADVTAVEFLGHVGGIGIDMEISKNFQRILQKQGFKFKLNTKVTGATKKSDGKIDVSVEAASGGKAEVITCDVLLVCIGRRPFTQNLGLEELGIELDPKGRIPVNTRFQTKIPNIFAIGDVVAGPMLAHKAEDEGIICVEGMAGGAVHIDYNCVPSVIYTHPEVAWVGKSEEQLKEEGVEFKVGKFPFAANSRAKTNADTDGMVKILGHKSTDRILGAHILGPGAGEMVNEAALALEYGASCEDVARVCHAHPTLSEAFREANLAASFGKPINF
# Assay: OADH reaction (OA saturation) catalyzed by the enzyme preparation from rat heart
# Type: biochemical
# Design: the tissue fractions with the complexes enriched to a degree allowing for a robust detection of the enzymatic activities, have been used; from tissue; host or cells: rat heart
# Conditions: for Ki / Amax: OADH reaction, heart
# Description: Enzymes catalyzing OGDH and OADH reactions were enriched from rat hearts and livers using polyethylene glycol precipitation, as previously described (Artiukhov et al., [2020]).
# The enzyme activities were assayed in the medium (pH 7.0) containing 50 mM MOPS, 1 mM ThDP, 1 mM MgCl2, 1 mM CaCl2, 1 mM dithiothreitol 0.15 mM Coenzyme A, 0.25 mM NAD^+ and various concentrations of 2-oxo substrates (0–10 mM OG or OA) and their phosphonate analogs (0–5,000 μM SP, GP, or AP). Reactions were started by addition of the enzyme preparations to the assay media. The amount of enzyme preparations (0.074 mg protein for the preparation from liver and 0.023 mg protein for the preparation from heart) were chosen to induce the lowest reliably measured reaction rate (ΔA340 = 0.001/min) at 0.01 mM OA without the phosphonates.
# Reaction rates were calculated from linear parts of the product accumulation curves (up to 10 min, dependent on the reaction rate), excluding the initial region, where mixing the reagents and solubilization of the preparation affected the optical density.
# Non-linear regression was used to approximate the experimental dependences of the reaction rates on the OG or OA concentration according to the Michaelis-Menten equation ( a=Amax*[S]/Km+[S] ) or its sum ( a=Amax*[S]/Km+[S]+Amax,2*[S]/Km,2+[S] ). The former equation describes one type of the active sites. […] The assumption was based on the presence of the two enzymes, OGDH and OADH, in the employed preparations.
# The kinetic data were also analyzed by linear regression, using the known methods of the linearization of the Michaelis-Menten equation in the Lineweaver-Burk ( 1/a=1/Amax(1+Km/[S]) ) and Eadie-Hofstee ( a=Amax−Kmv/[S] ) coordinates. Due to the several orders of magnitude difference in the values of Km,1 and Km,2, the linear regression required separate analysis of the dependencies in the intervals of the low and high concentrations of 2-oxoadipate. The Km and Amax values obtained in independent experiments using the non-linear and linear regression analyses of the experimental data, were averaged and presented as Mean ± Standard Error of Mean.
# To determine the inhibition constants (Ki), the effective values of Kmeff and Amaxeff , calculated from the hyperbolic or linear approximations as described above, were plotted against the concentration of the inhibitors ([I]). The linear regression of the equation Kmeff/Amaxeff=Km/Amax(1+[I]/Ki) , (Cornish-Bowden, [1979]) was applied to find the Intercept (Km/Amax) and Slope (Km/(Amax*Ki)) of a dependence. The values of Ki were determined as the ratio of the corresponding Intercepts to the Slopes. In the two-site model, the Ki(1) and Ki(2) were calculated separately from the linear approximations of Km,1eff/Amax,1eff vs. [I] and Km,2eff/Amax,2eff vs. [I] dependences, respectively. The standard errors of Ki were determined from means and standard errors of the Intercepts and the Slopes, using the previously described formula for standard deviation of a fraction (Bunik et al., [1999]). The Ki values obtained from the non-linear and linear regression analyses of the experimental data were averaged and presented as Mean ± Standard Error of Mean.
# [1] = 0–10 mM OA, Michaelis-Menten, read-out: Ki, MM
# [2] = Eadie-Hofstee, read-out: Ki, EH
# [3] = Lineweaver-Burk, read-out: Ki, LB
# [4] = average of MM, LB, EH, read-out: Ki, Average
SMILES,Ki [1] [µM],Ki [2] [µM],Ki [3] [µM],Ki [4] [µM],Amax ([I] 0.5 µM),Amax ([I] 2 µM),Amax ([I] 10 µM),Amax ([I] 50 µM),Amax ([I] 200 µM),Amax ([I] 1000 µM),"Amax, OA saturation (heart preparation)"
"O=C(O)CCCCC(=O)P(=O)(O)O [AP, adipoyl phosphonate]",49 ± 8,40 ± 7,58 ± 8,49 ± 5,0.101 ± 0.002 µmol/min per mg of protein,0.096 ± 0.002 µmol/min per mg of protein,0.098 ± 0.002 µmol/min per mg of protein,0.109 ± 0.002 µmol/min per mg of protein,0.116 ± 0.002 µmol/min per mg of protein,,
"O=C(O)CCC(=O)P(=O)(O)O [SP, succinyl phosphonate]",10.2 ± 0.2,6.3 ± 0.1,4.7 ± 0.3,7.1 ± 1.6,,,0.109 ± 0.001 µmol/min per mg of protein,0.109 ± 0.006 µmol/min per mg of protein,0.106 ± 0.004 µmol/min per mg of protein,0.075 ± 0.123 µmol/min per mg of protein,
"O=C(O)CCCC(=O)C(=O)O [OA, 2-oxoadipate]",,,,,,,,,,,0.102 ± 0.008 μmol/min per mg of protein
"O=C(O)CCCC(=O)P(=O)(O)O [GP, glutaryl phosphonate]",3.8 ± 0.1,3.4 ± 0.5,1.1 ± 0.2,2.8 ± 0.8,,0.105 ± 0.003 µmol/min per mg of protein,0.131 ± 0.002 µmol/min per mg of protein,0.139 ± 0.010 µmol/min per mg of protein,0.103 ± 0.018 µmol/min per mg of protein,,
